This note sets out measurements from ChEMBL document CHEMBL1156414, “Safety and activity of the immune modulator HE2000 on the incidence of tuberculosis and other opportunistic infections in AIDS patients” (2007).

Activity calls are given as the source filed them. The calls are words filed in the database; no cut-off is given here.

For test [1], the system named is Mycobacterium tuberculosis. Description: Reduction in incidence of Mycobacterium tuberculosis coinfection in AIDS patient at 100 mg administered intramuscularly once daily for 5 days. The test is classed as functional. On the set-up: scale not given: the % may be the effect or the level left.
For the next test, the system named is Homo sapiens. Put plainly: Reduction in cumulative incidence of opportunistic infections in AIDS patient at 100 mg administered intramuscularly once daily for 5 days. The test is classed as functional, organism-based.
Test [2] relates to Mycobacterium tuberculosis. Description: Reduction in incidence of Mycobacterium tuberculosis coinfection in AIDS patient at 100 mg administered intramuscularly once daily for 5 days measured 140 days postdose. The class given is functional, organism-based.

In test [1], `C[C@]12CC[C@H](O)C[C@@H]1CC[C@@H]1[C@@H]2CC[C@]2(C)C(=O)[C@H](Br)C[C@@H]12` [16.ALPHA.-BROMOEPIANDROSTERONE] displayed an Activity of 42.2%. Moreover, the outcome (with Homo sapiens; in test [2]) was Active.
